According to the supplement of paper PMC10307832:

Columns and labels:
Assay in all cases: relative viability (nuclei count vs DMSO), 5 days (fraction); higher = more cells survive
RU-SKI 43 + Vorinostat = compound: CC[C@@H](C)CNCC(=O)N1CCC2=C([C@@H]1COC3=CC=CC(=C3)C)C=CS2 [RU-SKI 43] + O=C(CCCCCCC(=O)Nc1ccccc1)NO [Vorinostat] (partner 1 µM)
Method in brief: (§1)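 Relative viability equals treated-well nuclei counts divided by vehicle-well nuclei counts. Counts came from 4× images of lung cancer cell lines grown in 1536-well plates for 5 days after pin-tool dosing on the day after seeding. Dosing used one drug alone or a fixed anchor-drug dose plus five library-drug doses (not always all listed) in √10 steps, and values are medians of duplicate plates.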

MK-8033 + Tozasertib = compound: Cn1cc(-c2cnc3ccc4ccc(CS(=O)(=O)NCc5ccccn5)cc4c(=O)c3c2)cn1 [MK-8033] + Cc1cc(Nc2cc(N3CCN(C)CC3)nc(Sc3ccc(NC(=O)C4CC4)cc3)n2)n[nH]1 [Tozasertib] (partner 0.1 µM)
Method in brief: as §1

MK-8033 + Olaparib = compound: Cn1cc(-c2cnc3ccc4ccc(CS(=O)(=O)NCc5ccccn5)cc4c(=O)c3c2)cn1 [MK-8033] + O=C(c1cc(Cc2n[nH]c(=O)c3ccccc23)ccc1F)N1CCN(C(=O)C2CC2)CC1 [Olaparib] (partner 8 µM)
Method in brief: as §1

RU-SKI 43 + Pemetrexed = compound: CC[C@@H](C)CNCC(=O)N1CCC2=C([C@@H]1COC3=CC=CC(=C3)C)C=CS2 [RU-SKI 43] + Nc1nc2[nH]cc(CCc3ccc(C(=O)N[C@@H](CCC(=O)O)C(=O)O)cc3)c2c(=O)[nH]1 [Pemetrexed] (partner 0.2 µM)
Method in brief: as §1

| Cell Line | relative viability (RU-SKI 43 + Vorinostat; first compound 0.1 µM) | relative viability (RU-SKI 43 + Vorinostat; first compound 0.3162 µM) | relative viability (RU-SKI 43 + Vorinostat; first compound 1 µM) | relative viability (RU-SKI 43 + Vorinostat; first compound 3.162 µM) | relative viability (RU-SKI 43 + Vorinostat; first compound 10 µM) | relative viability (MK-8033 + Tozasertib; first compound 0.02 µM) | relative viability (MK-8033 + Tozasertib; first compound 0.06325 µM) | relative viability (MK-8033 + Tozasertib; first compound 0.2 µM) | relative viability (MK-8033 + Tozasertib; first compound 0.6325 µM) | relative viability (MK-8033 + Tozasertib; first compound 2 µM) | relative viability (MK-8033 + Olaparib; first compound 0.02 µM) | relative viability (MK-8033 + Olaparib; first compound 0.06325 µM) | relative viability (MK-8033 + Olaparib; first compound 0.2 µM) | relative viability (MK-8033 + Olaparib; first compound 0.6325 µM) | relative viability (MK-8033 + Olaparib; first compound 2 µM) | relative viability (RU-SKI 43 + Pemetrexed; first compound 0.1 µM) | relative viability (RU-SKI 43 + Pemetrexed; first compound 0.3162 µM) | relative viability (RU-SKI 43 + Pemetrexed; first compound 1 µM) | relative viability (RU-SKI 43 + Pemetrexed; first compound 3.162 µM) | relative viability (RU-SKI 43 + Pemetrexed; first compound 10 µM) |
| --- | --- | --- | --- | --- | --- | --- | --- | --- | --- | --- | --- | --- | --- | --- | --- | --- | --- | --- | --- | --- |
| NCI-H1755 | 0.746 | 0.862 | 0.848 | 0.809 | 0.859 | 0.552 | 0.473 | 0.536 | 0.537 | 0.536 | 0.899 | 0.916 | 0.863 | 0.846 | 0.735 | 0.374 | 0.466 | 0.378 | 0.377 | 0.637 |
| LOU-NH91 | 1.01 | 0.871 | 1.03 | 0.979 | 0.902 | 0.653 | 0.406 | 0.644 | 0.644 | 0.678 | 0.893 | 0.679 | 0.842 | 0.913 | 0.882 | 0.399 | 0.345 | 0.456 | 0.389 | 0.378 |
| NCI-H1975 | 0.736 | 0.781 | 0.749 | 0.723 | 0.618 | 0.725 | 0.608 | 0.677 | – | 0.352 | 0.721 | 0.757 | 0.789 | 0.77 | 0.78 | 0.311 | 0.298 | 0.341 | 0.327 | 0.292 |
| NCI-H650 | 0.497 | 0.369 | – | 0.455 | 0.459 | 0.701 | 0.598 | 0.706 | 0.827 | 0.679 | 0.412 | 0.364 | 0.403 | 0.399 | 0.335 | 0.907 | 0.962 | – | 0.879 | 0.932 |
| SW 1573 | 0.746 | 0.997 | 0.963 | 0.934 | 0.767 | 0.175 | 0.214 | 0.187 | 0.223 | 0.232 | 0.537 | 0.479 | 0.418 | 0.567 | 0.393 | 0.674 | 0.942 | 0.991 | 0.867 | 0.759 |
| NCI-H441 | 0.752 | 0.97 | 0.97 | 0.741 | 0.849 | 0.578 | 0.568 | 0.62 | 0.605 | 0.475 | 0.628 | 0.446 | 0.56 | 0.529 | 0.59 | 0.28 | 0.273 | 0.277 | 0.255 | 0.219 |
| NCI-H1944 | 0.548 | 0.623 | 0.522 | 0.499 | 0.513 | 0.237 | 0.218 | 0.209 | 0.261 | 0.23 | 0.402 | 0.365 | 0.39 | 0.39 | 0.415 | 0.614 | 0.711 | 0.566 | 0.619 | 0.707 |
| NCI-H838 | 0.745 | 0.842 | 0.733 | 0.744 | 0.633 | 0.297 | 0.272 | 0.281 | 0.266 | 0.236 | 0.783 | 0.727 | 0.707 | 0.753 | 0.716 | 0.256 | 0.248 | 0.251 | 0.251 | 0.249 |
| NCI-H661 | 0.752 | 0.984 | 0.815 | 0.777 | 0.736 | 0.37 | 0.328 | 0.359 | 0.35 | 0.345 | 0.726 | 0.679 | 0.774 | 0.71 | 0.675 | 0.874 | 1.05 | 0.902 | 0.952 | 0.861 |
